ChEMBL document CHEMBL4118276, “The mimics of Nε-acyl-lysine derived from cysteine as sirtuin inhibitors” (Bioorg Med Chem Lett, 2018)
Calls of active or inactive are those of the source. The rule behind the calls is not given here. Residues, ends and D or L forms follow the SMILES beside them. *: point of attachment. X6 = O=C(CCC*)NCc1ccc([N+](=O)[O-])cc1; X10 = O=C(O)CCCNC(=O)CCC*; X7 = O=C(CCC*)NCc1ccccc1; X4 = O=C(O)CCNC(=O)CCC*; X13 = CCCCCCNC(=O)CCC*; X8 = O=C(O)CNC(=O)CCC*; X12 = CCCCNC(=O)CCC*; X11 = CNC(=O)CCC*; X9 = CCNC(=O)CCC*; X5 = NC(=O)CCC*

Columns and labels:
[1] = molecular target: T1, NAD-dependent protein deacylase sirtuin-6 (Homo sapiens, UniProt Q8N6T7); experiment: Inhibition of human SIRT6 (1 to 294 residues) expressed in Escherichia coli Rosetta (DE3) at 333 uM using H3K9AcWW as substrate preincubated for 15 mins followed by substrate addition measured after 1 hr by HPLC analysis relative to control
T1 sequence (Q8N6T7 whole entry, the tested form may be a part): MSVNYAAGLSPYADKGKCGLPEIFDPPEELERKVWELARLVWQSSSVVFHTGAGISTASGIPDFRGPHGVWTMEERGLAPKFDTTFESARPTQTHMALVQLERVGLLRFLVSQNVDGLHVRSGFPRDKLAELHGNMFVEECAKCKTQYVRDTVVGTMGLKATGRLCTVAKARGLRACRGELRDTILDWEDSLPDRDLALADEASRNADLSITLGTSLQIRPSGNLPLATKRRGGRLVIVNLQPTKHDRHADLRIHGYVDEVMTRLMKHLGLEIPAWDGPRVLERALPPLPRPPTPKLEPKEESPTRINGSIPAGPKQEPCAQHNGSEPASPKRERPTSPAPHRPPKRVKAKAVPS

[2] = molecular target: T2, NAD-dependent protein deacetylase sirtuin-1 (Homo sapiens) (UniProt Q96EB6); experiment: Inhibition of human SIRT1 expressed in Escherichia coli BL21 at 333 uM using H3K9AcWW as substrate preincubated for 15 mins followed by substrate addition measured after 1 hr by HPLC analysis relative to control
T2 sequence (whole entry): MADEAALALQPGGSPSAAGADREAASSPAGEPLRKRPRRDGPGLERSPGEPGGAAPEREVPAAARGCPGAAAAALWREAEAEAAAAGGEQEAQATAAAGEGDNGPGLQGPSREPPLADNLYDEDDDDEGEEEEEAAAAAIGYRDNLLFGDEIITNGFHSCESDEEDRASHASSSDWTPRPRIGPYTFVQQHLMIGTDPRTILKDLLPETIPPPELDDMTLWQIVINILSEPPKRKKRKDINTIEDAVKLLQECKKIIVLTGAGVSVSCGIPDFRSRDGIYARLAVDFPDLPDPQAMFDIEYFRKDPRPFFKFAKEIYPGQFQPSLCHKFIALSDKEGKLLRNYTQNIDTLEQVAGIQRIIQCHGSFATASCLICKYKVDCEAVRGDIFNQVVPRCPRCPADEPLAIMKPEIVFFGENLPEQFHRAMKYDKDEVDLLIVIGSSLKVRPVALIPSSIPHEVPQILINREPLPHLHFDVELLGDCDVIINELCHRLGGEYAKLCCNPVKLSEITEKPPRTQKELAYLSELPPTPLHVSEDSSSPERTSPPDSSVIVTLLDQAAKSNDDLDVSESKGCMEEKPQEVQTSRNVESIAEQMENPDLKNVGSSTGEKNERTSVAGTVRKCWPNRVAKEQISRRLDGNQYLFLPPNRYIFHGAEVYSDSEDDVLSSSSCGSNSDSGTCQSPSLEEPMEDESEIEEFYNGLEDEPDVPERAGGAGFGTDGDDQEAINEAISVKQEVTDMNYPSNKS

[3] = molecular target: T3, NAD-dependent protein deacetylase sirtuin-2 (Homo sapiens) (UniProt Q8IXJ6); experiment: Inhibition of human N-terminal His6-SUMO-tagged SIRT2 (38 to 356 residues) expressed in Escherichia coli BL21 at 333 uM using H3K9AcWW as substrate preincubated for 15 mins followed by substrate addition measured after 1 hr by HPLC analysis relative to control
T3 sequence (whole entry): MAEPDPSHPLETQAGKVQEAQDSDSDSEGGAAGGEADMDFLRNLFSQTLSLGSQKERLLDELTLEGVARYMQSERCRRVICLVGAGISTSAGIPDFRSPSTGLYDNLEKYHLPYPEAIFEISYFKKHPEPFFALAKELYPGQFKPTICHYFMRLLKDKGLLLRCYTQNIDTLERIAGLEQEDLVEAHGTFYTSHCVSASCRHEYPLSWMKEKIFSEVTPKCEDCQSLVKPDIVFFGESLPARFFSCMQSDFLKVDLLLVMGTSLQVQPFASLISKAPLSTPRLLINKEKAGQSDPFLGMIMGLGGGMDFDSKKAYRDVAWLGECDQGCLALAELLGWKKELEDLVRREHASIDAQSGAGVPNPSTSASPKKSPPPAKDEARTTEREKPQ

[4] = molecular target: T4, NAD-dependent protein deacetylase sirtuin-3, mitochondrial (Homo sapiens) (UniProt Q9NTG7); experiment: Inhibition of human SIRT3 expressed in Escherichia coli BL21 at 333 uM using H3K9AcWW as substrate preincubated for 15 mins followed by substrate addition measured after 1 hr by HPLC analysis relative to control
T4 sequence (whole entry): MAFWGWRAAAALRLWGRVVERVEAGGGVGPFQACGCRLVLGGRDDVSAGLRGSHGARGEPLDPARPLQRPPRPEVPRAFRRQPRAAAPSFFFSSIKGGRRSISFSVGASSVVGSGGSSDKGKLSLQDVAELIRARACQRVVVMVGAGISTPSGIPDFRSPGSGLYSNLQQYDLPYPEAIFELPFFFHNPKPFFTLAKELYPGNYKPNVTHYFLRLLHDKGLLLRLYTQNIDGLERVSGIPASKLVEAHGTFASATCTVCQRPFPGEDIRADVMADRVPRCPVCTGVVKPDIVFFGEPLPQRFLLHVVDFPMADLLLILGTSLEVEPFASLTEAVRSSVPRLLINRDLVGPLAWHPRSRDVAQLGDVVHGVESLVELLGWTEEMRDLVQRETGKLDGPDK

[5] = molecular target: T5, NAD-dependent protein deacylase sirtuin-5, mitochondrial (Homo sapiens, UniProt Q9NXA8); experiment: Inhibition of human SIRT5 expressed in Escherichia coli BL21 at 333 uM using H3K9AcWW as substrate preincubated for 15 mins followed by substrate addition measured after 1 hr by HPLC analysis relative to control
T5 sequence (Q9NXA8 37-310 limits assumed): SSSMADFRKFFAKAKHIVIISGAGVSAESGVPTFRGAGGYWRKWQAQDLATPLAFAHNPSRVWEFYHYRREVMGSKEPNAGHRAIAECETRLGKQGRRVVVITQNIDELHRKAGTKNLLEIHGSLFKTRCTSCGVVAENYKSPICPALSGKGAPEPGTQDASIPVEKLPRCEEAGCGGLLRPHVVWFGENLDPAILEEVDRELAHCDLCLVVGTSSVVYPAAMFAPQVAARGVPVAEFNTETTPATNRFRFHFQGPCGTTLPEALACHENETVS

[6] = molecular target: T3, NAD-dependent protein deacetylase sirtuin-2 (Homo sapiens); experiment: Inhibition of human N-terminal His6-SUMO-tagged SIRT2 (38 to 356 residues) expressed in Escherichia coli BL21 at 250 uM using H3K9AcWW as substrate preincubated for 15 mins followed by substrate addition measured after 1 hr by HPLC analysis relative to control
[7] = molecular target: T2, NAD-dependent protein deacetylase sirtuin-1 (Homo sapiens); experiment: Inhibition of human SIRT1 expressed in Escherichia coli BL21 at 250 uM using H3K9AcWW as substrate preincubated for 15 mins followed by substrate addition measured after 1 hr by HPLC analysis relative to control
[8] = molecular target: T5, NAD-dependent protein deacylase sirtuin-5, mitochondrial; experiment: Inhibition of human SIRT5 expressed in Escherichia coli BL21 at 250 uM using H3K9AcWW as substrate preincubated for 15 mins followed by substrate addition measured after 1 hr by HPLC analysis relative to control
[9] = molecular target: T1, NAD-dependent protein deacylase sirtuin-6; experiment: Inhibition of human SIRT6 (1 to 294 residues) expressed in Escherichia coli Rosetta (DE3) at 250 uM using H3K9AcWW as substrate preincubated for 15 mins followed by substrate addition measured after 1 hr by HPLC analysis relative to control

Row | Structure (SMILES) | inhibition [1] | inhibition [2] | inhibition [3] | inhibition [4] | inhibition [5] | inhibition [6] | inhibition [7] [%] | inhibition [8] | inhibition [9]
1 | CCCCCCNC(=O)CCCSC[C@H](NC(=O)OCc1ccccc1)C(=O)Nc1ccccc1 | inactive | inactive | 25% | inactive | inactive |  |  |  | 
2 | CCCCCCCCNC(=O)CCCSC[C@H](NC(=O)OCc1ccccc1)C(=O)Nc1ccccc1 | inactive | inactive | 60% | inactive | 14% |  |  |  | 
3 | O=C(CCCSC[C@H](NC(=O)OCc1ccccc1)C(=O)Nc1ccccc1)NCc1ccccc1 | 30% | inactive | 47% | 11% | 34% |  |  |  | 
4 | NC(=O)c1cccnc1 |  |  |  |  |  | 83% | 73 | 69% | 76%
5 | C[C@H](NC(=O)[C@@H](NC(=O)[C@H](CCC(N)=O)NC(=O)[C@@H](N)CCCCN)[C@@H](C)O)C(=O)N[C@@H](CCCNC(=N)N)C(=O)N[C@@H](CSCCCC(=O)NCC(=O)O)C(=O)N[C@@H](CO)C(=O)N[C@H](C(=O)NCC(=O)NCC(=O)N[C@@H](CCCCN)C(=O)O)[C@@H](C)O (H-KQTARC(X8)STGGK-OH) |  |  |  |  |  | 28% | 60 | 20% | 25%
6 | C[C@H](NC(=O)[C@@H](NC(=O)[C@H](CCC(N)=O)NC(=O)[C@@H](N)CCCCN)[C@@H](C)O)C(=O)N[C@@H](CCCNC(=N)N)C(=O)N[C@@H](CSCCCC(=O)NCc1ccccc1)C(=O)N[C@@H](CO)C(=O)N[C@H](C(=O)NCC(=O)NCC(=O)N[C@@H](CCCCN)C(=O)O)[C@@H](C)O (H-KQTARC(X7)STGGK-OH) |  |  |  |  |  | inactive | 30 | inactive | 28%
7 | C[C@H](NC(=O)[C@@H](NC(=O)[C@H](CCC(N)=O)NC(=O)[C@@H](N)CCCCN)[C@@H](C)O)C(=O)N[C@@H](CCCNC(=N)N)C(=O)N[C@@H](CSCCCC(=O)NCCC(=O)O)C(=O)N[C@@H](CO)C(=O)N[C@H](C(=O)NCC(=O)NCC(=O)N[C@@H](CCCCN)C(=O)O)[C@@H](C)O (H-KQTARC(X4)STGGK-OH) |  |  |  |  |  | 45% | 66 | 15% | 54%
8 | O=C(O)CNC(=O)CCCSC[C@H](NC(=O)OCc1ccccc1)C(=O)Nc1ccccc1 | 53% | 26% | inactive | inactive | inactive |  |  |  | 
9 | C[C@H](NC(=O)[C@@H](NC(=O)[C@H](CCC(N)=O)NC(=O)[C@@H](N)CCCCN)[C@@H](C)O)C(=O)N[C@@H](CCCNC(=N)N)C(=O)N[C@@H](CSCCCC(=O)NCCCC(=O)O)C(=O)N[C@@H](CO)C(=O)N[C@H](C(=O)NCC(=O)NCC(=O)N[C@@H](CCCCN)C(=O)O)[C@@H](C)O (H-KQTARC(X10)STGGK-OH) |  |  |  |  |  | 33% | 23 | 16% | 43%
10 | CCCCNC(=O)CCCSC[C@H](NC(=O)[C@H](CCCNC(=N)N)NC(=O)[C@H](C)NC(=O)[C@@H](NC(=O)[C@H](CCC(N)=O)NC(=O)[C@@H](N)CCCCN)[C@@H](C)O)C(=O)N[C@@H](CO)C(=O)N[C@H](C(=O)NCC(=O)NCC(=O)N[C@@H](CCCCN)C(=O)O)[C@@H](C)O (H-KQTARC(X12)STGGK-OH) |  |  |  |  |  | 12% | 30 | inactive | inactive
11 | O=C(O)CCNC(=O)CCCSC[C@H](NC(=O)OCc1ccccc1)C(=O)Nc1ccccc1 | 43% | inactive | inactive | inactive | inactive |  |  |  | 
12 | C[C@H](NC(=O)[C@@H](NC(=O)[C@H](CCC(N)=O)NC(=O)[C@@H](N)CCCCN)[C@@H](C)O)C(=O)N[C@@H](CCCNC(=N)N)C(=O)N[C@@H](CSCCCC(=O)NCc1ccc([N+](=O)[O-])cc1)C(=O)N[C@@H](CO)C(=O)N[C@H](C(=O)NCC(=O)NCC(=O)N[C@@H](CCCCN)C(=O)O)[C@@H](C)O (H-KQTARC(X6)STGGK-OH) |  |  |  |  |  | 26% | 38 | inactive | 26%
13 | CCCCCCCCCCNC(=O)CCCSC[C@H](NC(=O)OCc1ccccc1)C(=O)Nc1ccccc1 | 28% | inactive | 61% | 14% | 24% |  |  |  | 
14 | CCNC(=O)CCCSC[C@H](NC(=O)[C@H](CCCNC(=N)N)NC(=O)[C@H](C)NC(=O)[C@@H](NC(=O)[C@H](CCC(N)=O)NC(=O)[C@@H](N)CCCCN)[C@@H](C)O)C(=O)N[C@@H](CO)C(=O)N[C@H](C(=O)NCC(=O)NCC(=O)N[C@@H](CCCCN)C(=O)O)[C@@H](C)O (H-KQTARC(X9)STGGK-OH) |  |  |  |  |  | 13% | 35 | inactive | inactive
15 | CCCCCCNC(=O)CCCSC[C@H](NC(=O)[C@H](CCCNC(=N)N)NC(=O)[C@H](C)NC(=O)[C@@H](NC(=O)[C@H](CCC(N)=O)NC(=O)[C@@H](N)CCCCN)[C@@H](C)O)C(=O)N[C@@H](CO)C(=O)N[C@H](C(=O)NCC(=O)NCC(=O)N[C@@H](CCCCN)C(=O)O)[C@@H](C)O (H-KQTARC(X13)STGGK-OH) |  |  |  |  |  | 20% | 36 | inactive | inactive
16 | CNC(=O)CCCSC[C@H](NC(=O)[C@H](CCCNC(=N)N)NC(=O)[C@H](C)NC(=O)[C@@H](NC(=O)[C@H](CCC(N)=O)NC(=O)[C@@H](N)CCCCN)[C@@H](C)O)C(=O)N[C@@H](CO)C(=O)N[C@H](C(=O)NCC(=O)NCC(=O)N[C@@H](CCCCN)C(=O)O)[C@@H](C)O (H-KQTARC(X11)STGGK-OH) |  |  |  |  |  | inactive | 34 | 10% | inactive
17 | C[C@H](NC(=O)[C@@H](NC(=O)[C@H](CCC(N)=O)NC(=O)[C@@H](N)CCCCN)[C@@H](C)O)C(=O)N[C@@H](CCCNC(=N)N)C(=O)N[C@@H](CSCCCC(N)=O)C(=O)N[C@@H](CO)C(=O)N[C@H](C(=O)NCC(=O)NCC(=O)N[C@@H](CCCCN)C(=O)O)[C@@H](C)O (H-KQTARC(X5)STGGK-OH) |  |  |  |  |  | 27% | 40 | 18% | inactive
